Results published in patent US8329738B2, “Use of AMPK-activating imidazole derivatives, preparation process therefor and pharmaceutical compositions comprising them” (Merck Patent Gesellschaft mit Beschränkter Haftung, priority 2006, dated 2012).

tested on: AMPK; assay: AMPK activation: phosphorylation of peptide AMARAA, Delfia protocol; format: biochemical; settings: relative to the basal activity (100%) obtained in the absence of AMP, partially purified AMPK from rat liver
Description: 25 mU of AMPK are incubated in the presence of different concentrations of AMP or of products, for 30 minutes at 30° C., in a final volume of 30 μl comprising 50 mM Hepes, 19 mM MgCl2, 125 μM ATP, 5 mM NaPPi, 1 mM EDTA, 1 mM DTT, 2 mM Na3VO4 and 25 μM of peptide AMARAA biotinyl (Biot-NH-AMARAASAAALARRR-COOH).
The phosphorylation of the peptide AMARAA is then measured according to a Delfia protocol (Perkin-Elmer), using a europium-labelled anti-phospho-serine specific antibody.
The AMPK used in this test is a partially purified protein from rat liver.
The percentage of activation is calculated relative to the basal activity (100%) obtained in the absence of AMP.

Going from COc1ccc(NC(=O)Nc2ccc(Cn3cnc(O)c3C(N)=O)cc2)cc1 [Example 43, 5-hydroxy-3-{4-[3-(4-methoxyphenyl)ureido]benzyl}-3H-imidazole-4-carboxamide] to NC(=O)c1c(O)ncn1Cc1ccc(NC(=O)Nc2ccc(Cl)cc2)cc1 [Example 44, 5-hydroxy-3-{4-[3-(4-chlorophenyl)ureido]benzyl}-3H-imidazole-4-carboxamide], the “% Activation at 200 μM” value falls from 229% to 147%.

Going from NC(=O)c1c(O)ncn1Cc1ccc(NC(=O)Nc2cccc3ccccc23)cc1 [Example 47, 5-hydroxy-3-[4-(3-naphthalen-1-ylureido)benzyl]-3H-imidazole-4-carboxamide] to CCc1ccc(NC(=O)Nc2ccc(Cn3cnc(O)c3C(N)=O)cc2)cc1 [Example 56, 5-hydroxy-3-{4-[3-(4-ethylphenyl)ureido]benzyl}-3H-imidazole-4-carboxamide], the “% Activation at 200 μM” value rises from 184% to 289%.

With CSc1ccc(NC(=O)Nc2ccc(Cn3cnc(O)c3C(N)=O)cc2)cc1 [Example 58, 5-hydroxy-3-{4-[3-(4-methylsulfanylphenyl)ureido]benzyl}-3H-imidazole-4-carboxamide] the “% Activation at 200 μM” value was 311%.

tested on: not given; assay: not given; settings: not given

First: NC(=O)c1ncn(CCOc2ccc(F)cc2)c1O [Example 1, 1-[2-(4-fluorophenoxy)ethyl]-5-hydroxy-1H-imidazole-4-carboxamide]
Second: CCOC(=O)c1ncn(CCOc2ccc(F)cc2)c1O [Example 7, ethyl 5-hydroxy-1-[2-(-4-fluorophenoxy)ethyl]-1H-imidazole-4-carboxylate]
The melting point of the first is higher: 204 °C for the first, 200 °C for the second.

Compared with NC(=O)c1ncn(CCOc2ccccc2)c1O [Example 2, 5-hydroxy-1-(2-phenoxyethyl)-1H-imidazole-4-carboxamide], N#Cc1ccc(OCCn2cnc(C(N)=O)c2O)cc1 [Example 3, 1-[2-(4-cyanophenoxy)ethyl]-5-hydroxy-1H-imidazole-4-carboxamide] is lower in melting point: 192 °C for the first, 190 °C for the second.

Going from COC(=O)c1ccc(OCCn2cnc(C(N)=O)c2O)cc1 [Example 4, methyl 4-[2-(4-carbamoyl-5-hydroxyimidazol-1-yl)ethoxy]benzoate] to CCOC(=O)c1ncn(CCOc2ccc(C(=O)OC)cc2)c1O [Example 8, ethyl 5-hydroxy-1-{2-[-4(methoxycarbonyl)phenoxy]ethyl}-1H-imidazole-4-carboxylate], the melting point rises from 190 °C to 202 °C.

First: CCOC(=O)c1ncn(CCOc2ccc(C#N)cc2)c1O [Example 6, ethyl 5-hydroxy-1-[2-(-4-cyanophenoxy)ethyl]-1H-imidazole-4-carboxylate]
Second: N#Cc1ccc(OCCn2cnc(O)c2C(N)=O)cc1 [Example 16, 3-[2-(4-cyanophenoxy)ethyl]-5-hydroxy-3H-imidazole-4-carboxamide]
The melting point of the first is lower: 190 °C for the first, 264 °C for the second.

Compared with CCOC(=O)c1ncn(Cc2ccccc2)c1OC [Example 9, ethyl 1-benzyl-5-methoxy-1H-imidazole-4-carboxylate], CCOC(=O)c1ccc(Cn2cnc(O)c2C(N)=O)cc1 [Example 12, 5-hydroxy-3-[4-(ethoxycarbonyl)benzyl]imidazole-4-carboxamide] is higher in melting point: 150 to 153 °C for the first, 266 to 268 °C for the second.

Compared with NC(=O)c1c(O)ncn1Cc1ccc(F)cc1 [Example 10, 5-hydroxy-3-(4-fluorobenzyl)imidazole-4-carboxamide], NC(=O)c1c(O)ncn1Cc1ccc(Cl)cc1 [Example 11, 5-hydroxy-3(4-chlorobenzyl)imidazole 4-carboxamide] is lower in melting point: 230 to 234 °C for the first, 206 to 212 °C for the second.

Compared with NC(=O)c1c(O)ncn1-c1ccccc1 [Example 13, 5-hydroxy-3-phenylimidazole-4-carboxamide], NC(=O)c1c(O)ncn1Cc1ccc(N)cc1 [Example 18, 3-(4-aminobenzyl)-5-hydroxy-3H-imidazole-4-carboxamide] is higher in melting point: 182 °C for the first, 230 to 231 °C for the second.

First: NC(=O)c1c(O)ncn1CCOc1ccc(F)cc1 [Example 15, 3-[2-(4-fluorophenoxy)ethyl]-5-hydroxy-3H-imidazole-4-carboxamide]
Second: COC(=O)c1ccc(OCCn2cnc(O)c2C(N)=O)cc1 [Example 16b is, methyl 4-[2-(5-carbamoyl-4-hydroxyimidazol-1-yl)ethoxy]-benzoate]
The melting point of the first is lower: 230 °C for the first, 263 °C for the second.

First: COc1ncn(Cc2ccc([N+](=O)[O-])cc2)c1C(N)=O [Example 19, 3-(4-nitrobenzyl)-5-methoxy-3H-imidazole-4-carboxamide]
Second: NC(=O)c1c(OCc2ccccc2)ncn1Cc1ccc([N+](=O)[O-])cc1 [Example 20, 3-(4-nitrobenzyl)-5-benzyloxy-3H-imidazole-4-carboxamide]
The melting point of the first is higher: 201 to 203 °C for the first, 193 to 195 °C for the second.

First: COc1cccc(C(=O)Nc2ccc(Cn3cnc(O)c3C(N)=O)cc2)c1 [Example 21, 5-hydroxy-3-[4-(3-methoxybenzoylamino)benzyl]-3H-imidazole-4-carboxamide]
Second: NC(=O)c1c(O)ncn1Cc1ccc(NC(=O)Nc2cccc(C(=O)O)c2)cc1 [Example 70, 3-{3-[4-(5-carbamoyl-4-hydroxyimidazol-1-ylmethyl)phenyl]ureido}benzoic acid]
The melting point of the first is higher: 257 to 259 °C for the first, 218 to 220 °C for the second.

Compared with NC(=O)c1c(O)ncn1Cc1ccc(NC(=O)Nc2ccccc2)cc1 [Example 41, 5-hydroxy-3-[4-(3-phenylureido)benzyl]-3H-imidazole-4-carboxamide], NC(=O)Nc1ccc(Cn2cnc(O)c2C(N)=O)cc1 [Example 42, 5-hydroxy-3-[4-ureidobenzyl]-3H-imidazole-4-carboxamide] is higher in melting point: 232 to 235 °C for the first, 243 to 244 °C for the second.
